# What was measured:
# [1] = Accelerated stability in formulations containing PEG or PG and pH 10 buffer at 90° C. (HPLC); format: physicochemical; settings: for % ON 01910.Na Remaining: 90° C.
# Experimental: (§1) The effect of dielectric constant on the stabilization of ON 01910.Na, for example, was investigated, for example, by preparing formulations containing propylene glycol and PEG 400. The accelerated stability studies were preformed at 75 and 90° C. […] The following tables summarizes the results:
# (§2) The samples were evaluated by an HPLC assay utilizing a Phenomenex Luna C-18, 5 micron (4.6 mm×250 mm) reverse phase column at ambient conditions. The mobile phase consisted of 60%-0.1% Trifluoroacetic Acid in water: 40% Acetonitrile. The flow rate was set to 2.0 ml/minute and the eluant was monitored at 230 nm
# [2] = Solubility of the Na salt
# [3] = Long term stability of 75 mg/mL ON 01910.Na in 100% PEG-400 (HPLC); format: physicochemical; settings: 100% PEG-400 for clinical use
# Experimental: ON 01910.Na IV solution was manufactured at a concentration of 75 mg/mL in 100% PEG-400. The finished product consisted of 3 mL of drug product aseptically filled into
# presterilized 5 mL vials. The manufacturing was in compliance with current Good Manufacturing Practices regulations.
# Visual Inspection (a) The zero-time data point is the same as the release data generated from the manufactured clinical lot. Analytical Methods: (a) HPLC—Chromatography is performed using a Phenomenex Luna C-18 (2), 5 micron
# (4.6 mm×250 mm, PN 00G-4252-E0) column at ambient conditions. The mobile phase used is 60%-0.1% trifluoroacetic acid in water; 40% acetonitrile. The flow rate is set at 2.0 ml/min Injection volume is 50 μL. Detection is accomplished by means of a UV/VIS detector at 230, 254, and 320 nm. Instrument control and data acquisition is facilitated using a Waters Millennium (V 2.15) software package. The external calibration is obtained using ON 01910.Na standard solutions prepared in 50:50 acetonitrile:water. This analytical method was validated.
# [4] = test system: patients with advanced solid tumors; assay: Phase I dose escalation study by 2-hour intravenous infusion; format: in vivo; settings: iv 2 hour infusion, twice per week for 3 weeks, ten days off; no grade 2 or worse toxicities
# Experimental: Safety and efficacy of this formulation, for example, is tested in a Phase I clinical study, at The Johns Hopkins Sidney Kimmel Cancer Center, Baltimore, Md., i.e., “Phase I Dose Escalation Study Of ON 01910.Na By 2-Hour Intravenous Infusion In Patients With Advanced Solid Tumors”. U.S. FDA IND #66,780. The objectives of this study include an identification of a maximum tolerated dose (MTD) and a recommended dose for further clinical studies. A further object of the study is to establish a safety profile, i.e., to observe any toxicities. The patients in this study have advanced solid tumors that have failed conventional treatments, or for which no approved therapy exists. An object of the study is particularly to observe efficacy (anti-cancer effects).
# The patients are administered the preferred formulation described herein of the ON 01910.Na drug (properly diluted in intravenous solution) over a two hour period, twice per week, for three weeks. The patients are subsequently observed for […], to constitute a four week treatment cycle.
# This study started with a single patient at the first starting dose level of 80 mg per patient. If there is no grade 2 or worse drug-related toxicity (side effects) observed in the first four week cycle, then another patient may be dosed at the next higher dose level. The first patient was dosed at 80 mg per patient on Aug. 3, 2004. […]
# [5] = Infusion bag compatibility study; format: physicochemical; settings: 75 mg/ml in PEG-400, bags containing 0.45% NaCl and 0.9% NaCl solutions
# Experimental: This example summarizes the results of a compatibility study of ON 01910.Na drug product (75 mg/ml in PEG-400) in IV Infusion Bags and Sets containing 0.45% NaCl and 0.9% NaCl solutions. The study consisted of preparing solutions of 80 mg of the ON 01910.Na in 250 ml 0.9% NaCl, and 800 mg of ON01910.Na in 250 ml 0.45% NaCl, and storing them in IV infusion bags for over 24 hours to determine if there is any product loss or instability. The solutions were also passed through infusion sets at a rate of approximately 2 ml per minute for 120 minutes and monitored for product loss or instability.
# The samples were analyzed by HPLC for Assay, % Recovery, and Impurities. Appearance, Osmolarity, and pH of the solutions were also monitored throughout the study. […]
# Five ml of solution were removed from each bag for analysis at the following time points: T=0, 1 hr, 2 hr, 4 hr, 8 hr, and 24.5 hr. Appearance, Assay, % Impurities, % Recovery, Osmolarity, and pH were analyzed at each time points.
# Results are shown in Tables 10-13. % Recovery is the percentage of drug substance as compared to the calculated amount, while % T0 is defined as the percentage of drug substance as compared to drug substance at the initial timepoint. […]
# [6] = Accelerated stability of ON 01910.Na in formulations containing PEG at 75° C. (HPLC); format: physicochemical; settings: for % ON 01910.Na Remaining: 75° C.
# Experimental: as §1, §2
compound,measurement,setting,value
"COc1cc(OC)c(/C=C/S(=O)(=O)Cc2ccc(OC)c(NCC(=O)[O-])c2)c(OC)c1.[Na+] [ON 01910.Na, (E)-2,4,6-trimethoxystyryl-3-carboxymethylamino-4-methoxybenzylsulfone]",stability on adjusting the pH of the aqueous medium above 8,[1],further improved
same,% ON 01910.Na Remaining,"[1]; PEG:Buffer, After 72 hours",94.22%
same,% ON 01910.Na Remaining,"[1]; PEG:Buffer, Control",100.00%
same,% ON 01910.Na Remaining,"[1]; PEG:Water, After 72 hours",22.28%
same,% ON 01910.Na Remaining,"[1]; PEG:Water, Control",100.00%
same,% ON 01910.Na Remaining,"[1]; PG:Buffer, After 72 hours",79.62%
same,% ON 01910.Na Remaining,"[1]; PG:Buffer, Control",100.00%
same,% ON 01910.Na Remaining,"[1]; PG:Water, After 72 hours",15.79%
same,% ON 01910.Na Remaining,"[1]; PG:Water, Control",100.00%
same,% ON 01910.Na Remaining,"[1]; PH 10 buffer, After 72 hours",50.18%
same,% ON 01910.Na Remaining,"[1]; PH 10 buffer, Control",100.00%
same,% ON 01910.Na Remaining,"[1]; Water, After 72 hours",5.36%
same,% ON 01910.Na Remaining,"[1]; Water, Control",100.00%
same,solubility,[2],very soluble
same,expected degradation over a two year period,[3],not be any Significant Degradation
same,long term stability in the current formulation,[3],Extremely Stable
same,dose that can be safely administered,[4],≥ 2080 mg
same,stability in IV infusion bags,[5],stable over 24 hours
same,% ON 01910.Na Remaining,"[6]; 0% PEG, 0 D",100.00%
same,% ON 01910.Na Remaining,"[6]; 0% PEG, 0.25 D",86.47%
same,% ON 01910.Na Remaining,"[6]; 0% PEG, 2 D",11.20%
same,% ON 01910.Na Remaining,"[6]; 0% PEG, 7 D",0.47%
same,% ON 01910.Na Remaining,"[6]; 0% PEG, 14 D",0.47%
same,% ON 01910.Na Remaining,"[6]; 0% PEG, 28 D",0.02%
same,% ON 01910.Na Remaining,"[6]; 25% PEG, 0 D",100.00%
same,% ON 01910.Na Remaining,"[6]; 25% PEG, 0.25 D",98.12%
same,% ON 01910.Na Remaining,"[6]; 25% PEG, 2 D",66.89%
same,% ON 01910.Na Remaining,"[6]; 25% PEG, 7 D",42.13%
same,% ON 01910.Na Remaining,"[6]; 25% PEG, 14 D",32.03%
same,% ON 01910.Na Remaining,"[6]; 25% PEG, 28 D",29.80%
same,% ON 01910.Na Remaining,"[6]; 50% PEG, 0 D",100.00%
same,% ON 01910.Na Remaining,"[6]; 50% PEG, 0.25 D",100.32%
same,% ON 01910.Na Remaining,"[6]; 50% PEG, 2 D",94.76%
same,% ON 01910.Na Remaining,"[6]; 50% PEG, 7 D",86.06%
same,% ON 01910.Na Remaining,"[6]; 50% PEG, 14 D",75.80%
same,% ON 01910.Na Remaining,"[6]; 50% PEG, 28 D",68.73%
same,stability on addition of propylene glycol or PEG 400 to an aqueous formulation,[6]; accelerated studies at 75 and 90° C.,drastically improved
